SMILES strings stand for the structures. Active and inactive are the calls of the source.

The target in one assay is Protein Tat (Human immunodeficiency virus type 1 group M subtype B (isolate HXB2)(HIV-1), UniProt P04608). Type of assay: functional.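 Note: tat binding to TAR RNA read out by fluorescence polarization.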
The target of assay [1] is Luciferin 4-monooxygenase (Photinus pyralis, UniProt P08659). The assay is described as follows: Counter Screen for Luciferase-based Assay Positives. [Related pubchem assays: 620, 618, 411 ].
Luciferin 4-monooxygenase, sequence (P08659 whole entry): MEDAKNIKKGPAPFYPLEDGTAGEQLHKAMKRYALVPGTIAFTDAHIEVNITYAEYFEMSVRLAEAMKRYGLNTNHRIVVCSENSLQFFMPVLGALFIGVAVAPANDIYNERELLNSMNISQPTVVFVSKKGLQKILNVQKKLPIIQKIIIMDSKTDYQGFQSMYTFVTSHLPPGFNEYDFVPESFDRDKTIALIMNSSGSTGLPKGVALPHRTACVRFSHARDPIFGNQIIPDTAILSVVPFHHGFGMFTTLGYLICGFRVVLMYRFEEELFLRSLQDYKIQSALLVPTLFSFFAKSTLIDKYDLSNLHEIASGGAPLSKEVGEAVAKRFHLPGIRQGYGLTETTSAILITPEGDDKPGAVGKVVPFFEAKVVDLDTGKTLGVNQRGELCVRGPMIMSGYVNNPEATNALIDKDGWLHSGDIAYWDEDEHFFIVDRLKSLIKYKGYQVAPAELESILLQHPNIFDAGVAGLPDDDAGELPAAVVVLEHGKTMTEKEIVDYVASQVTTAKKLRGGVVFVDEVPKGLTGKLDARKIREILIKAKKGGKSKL
Another assay deals with HT-1080. The assay can be described thus: cytotoxicity in HT1080 fibrosarcoma cells, cell-based, fluorescence readout (AID 620). The conditions noted are these: Homo sapiens. Type of assay: functional.
The nature of assay [2]: Luminescence-based cell-based high throughput dose response assay to identify activators of the DAF-12 from the parasite S. stercoralis (ssDAF-12). It counts as functional.
The target in assay [3] is T1, Oxysterols receptor LXR-beta (Homo sapiens, UniProt P55055).
T1 sequence (P55055 whole entry): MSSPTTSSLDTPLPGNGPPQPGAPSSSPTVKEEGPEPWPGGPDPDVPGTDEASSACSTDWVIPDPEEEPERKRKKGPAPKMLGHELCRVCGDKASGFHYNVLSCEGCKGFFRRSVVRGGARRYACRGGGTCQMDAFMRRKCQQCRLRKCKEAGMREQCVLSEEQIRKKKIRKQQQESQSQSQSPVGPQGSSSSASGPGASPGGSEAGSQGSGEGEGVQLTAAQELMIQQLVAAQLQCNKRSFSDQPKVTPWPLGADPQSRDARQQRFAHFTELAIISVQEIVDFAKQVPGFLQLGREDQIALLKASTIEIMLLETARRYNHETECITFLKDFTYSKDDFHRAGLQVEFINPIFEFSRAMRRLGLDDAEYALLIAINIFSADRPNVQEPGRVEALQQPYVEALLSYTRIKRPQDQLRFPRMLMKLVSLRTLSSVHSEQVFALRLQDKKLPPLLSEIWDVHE
The assay is described as follows: LXR agonists, Gal4 luciferase reporter, dose response, counter-screen for ssDAF-12 agonist project, cell-based, luminescence, HEK293, S. stercoralis campaign (AID 720737). The settings on record: read-out: IC50 (the source's name). Type of assay: functional. For orientation: Reporter assays use an easily measured gene product as a stand-in for the process of interest.

For assay [4], the target named is T1, Oxysterols receptor LXR-beta. Type of assay: functional, cell-based.
Assay [5] in a line: human group III sPLA2 inhibitors, dose response, biochemical, QFRET, IC50 (AID 743457).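 Note: green fluorescence rise as the enzyme cleaves BODIPY PC-A2 in liposomes; potency for inhibition of the enzyme.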
Assay [6] in a line: HepG2 cell cytotoxicity, dose response, cytotoxicity control, ATP luminescence, cherry-pick, activator set 2 (AID 1053143). Type of assay: functional, cell-based.
Assay [7] deals with Peroxisome proliferator-activated receptor gamma/Nuclear receptor corepressor 2 (Homo sapiens, UniProt P37231+Q9Y618). The assay can be described thus: Counterscreen for NR2E3 inverse agonists: TR-FRET-based biochemical high throughput dose response assay to identify inverse agonists of the interaction between peroxisome proliferator-activated receptor gamma (PPARg) and nuclear receptor co-repressor 2 (NCOR2). Type of assay: functional. For orientation: The purpose of a counterscreen is to sort out artefacts and off-target activity.

The target of assay [8] is Photoreceptor-specific nuclear receptor (Homo sapiens, UniProt Q9Y5X4). The assay can be described thus: NR2E3 inverse agonists, dose response, biochemical, TR-FRET (AID 463256). It counts as functional.
Photoreceptor-specific nuclear receptor, sequence (Q9Y5X4 whole entry): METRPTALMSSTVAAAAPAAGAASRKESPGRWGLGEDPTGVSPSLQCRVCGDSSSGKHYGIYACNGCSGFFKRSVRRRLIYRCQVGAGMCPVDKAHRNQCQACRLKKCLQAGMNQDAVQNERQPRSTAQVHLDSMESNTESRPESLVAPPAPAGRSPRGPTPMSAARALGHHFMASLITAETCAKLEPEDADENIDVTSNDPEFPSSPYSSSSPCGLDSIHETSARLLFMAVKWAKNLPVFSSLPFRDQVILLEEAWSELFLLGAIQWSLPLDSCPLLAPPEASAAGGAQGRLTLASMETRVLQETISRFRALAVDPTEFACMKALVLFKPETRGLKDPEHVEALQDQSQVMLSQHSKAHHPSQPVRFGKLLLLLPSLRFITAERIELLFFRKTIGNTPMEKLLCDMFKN
Assay [9] can be described thus: cytotoxicity in HEK-293T cells, dose response, cytotoxicity control for TCR NF-kB inhibitor project, luminescence, T-cell screen hits (AID 489026).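 Note: cells exposed to compound about 14 hours before the viability readout.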 It counts as functional, cell-based.
The target in assay [10] is SWI/SNF-related matrix-associated actin-dependent regulator of chromatin subfamily A member 2 (Homo sapiens, UniProt P51531). The assay is described as follows: Luminescence-based cell-based high throughput dose response assay to identify activators of the function of SWI/SNF related, matrix associated, actin dependent regulator of chromatin, subfamily a, member 2 (SMARCA2, BRM). It counts as functional.
SWI/SNF-related matrix-associated actin-dependent regulator of chromatin subfamily A member 2, sequence (P51531 whole entry): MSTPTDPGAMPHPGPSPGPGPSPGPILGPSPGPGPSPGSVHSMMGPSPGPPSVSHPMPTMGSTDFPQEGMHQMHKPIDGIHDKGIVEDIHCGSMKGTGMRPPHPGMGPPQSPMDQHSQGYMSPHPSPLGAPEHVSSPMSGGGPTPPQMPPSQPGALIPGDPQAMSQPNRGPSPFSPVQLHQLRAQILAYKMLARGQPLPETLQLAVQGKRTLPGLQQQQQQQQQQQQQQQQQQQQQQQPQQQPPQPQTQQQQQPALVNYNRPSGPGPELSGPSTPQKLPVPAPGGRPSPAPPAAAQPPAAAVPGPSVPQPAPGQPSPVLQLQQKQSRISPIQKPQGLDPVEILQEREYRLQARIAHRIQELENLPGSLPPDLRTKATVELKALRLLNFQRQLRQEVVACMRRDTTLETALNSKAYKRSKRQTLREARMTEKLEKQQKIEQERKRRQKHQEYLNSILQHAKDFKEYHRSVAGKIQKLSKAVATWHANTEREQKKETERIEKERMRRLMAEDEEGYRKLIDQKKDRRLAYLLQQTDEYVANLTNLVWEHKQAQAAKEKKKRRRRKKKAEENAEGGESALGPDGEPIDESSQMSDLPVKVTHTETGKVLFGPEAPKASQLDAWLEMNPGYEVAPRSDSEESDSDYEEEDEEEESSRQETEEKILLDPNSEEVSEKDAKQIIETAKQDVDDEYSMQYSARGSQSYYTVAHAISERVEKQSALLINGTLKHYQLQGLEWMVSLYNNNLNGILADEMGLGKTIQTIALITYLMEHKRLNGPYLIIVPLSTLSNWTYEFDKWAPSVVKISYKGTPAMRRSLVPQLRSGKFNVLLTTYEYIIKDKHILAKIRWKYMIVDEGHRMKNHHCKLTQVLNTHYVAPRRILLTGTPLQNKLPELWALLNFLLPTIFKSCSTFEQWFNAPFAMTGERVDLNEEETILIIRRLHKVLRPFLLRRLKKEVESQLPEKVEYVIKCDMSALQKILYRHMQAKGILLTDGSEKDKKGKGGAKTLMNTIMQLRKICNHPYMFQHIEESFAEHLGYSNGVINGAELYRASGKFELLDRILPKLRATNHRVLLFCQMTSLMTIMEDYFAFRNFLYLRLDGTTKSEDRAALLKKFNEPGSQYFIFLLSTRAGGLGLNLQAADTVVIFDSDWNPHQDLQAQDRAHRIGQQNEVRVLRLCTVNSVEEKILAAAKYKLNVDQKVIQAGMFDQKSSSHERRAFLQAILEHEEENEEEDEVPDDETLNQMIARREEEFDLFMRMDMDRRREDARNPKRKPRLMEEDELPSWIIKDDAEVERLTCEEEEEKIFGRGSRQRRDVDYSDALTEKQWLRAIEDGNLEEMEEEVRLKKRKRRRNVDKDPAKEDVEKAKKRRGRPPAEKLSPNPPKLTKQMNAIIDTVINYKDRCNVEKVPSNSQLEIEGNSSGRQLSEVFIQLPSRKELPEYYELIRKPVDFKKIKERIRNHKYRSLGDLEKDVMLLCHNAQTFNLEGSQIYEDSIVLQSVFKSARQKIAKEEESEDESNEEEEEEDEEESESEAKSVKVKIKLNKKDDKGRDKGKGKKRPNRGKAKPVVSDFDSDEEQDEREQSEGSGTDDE

Assay [11] in a line: Counterscreen for activators of the function of SWI/SNF related, matrix associated, actin dependent regulator of chromatin, subfamily a, member 2 (SMARCA2, BRM): Luminescence-based cell-based high throughput dose response assay to identify non-selective compounds using the VP16 reporter assay. It counts as functional.
Another assay has as its target Fatty acid synthase (Homo sapiens, UniProt P49327). The assay can be described thus: FAS thioesterase domain inhibitors, dose response, biochemical, kinetic fluorescence intensity (AID 624326).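 Note: rate of fluorescence rise from hydrolysis of a fluorogenic O-methyl fluorescein ester substrate.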 It counts as functional.
Assay [12] addresses Disintegrin and metalloproteinase domain-containing protein 17 (Homo sapiens, UniProt P78536). The assay is described as follows: exosite inhibitors of ADAM17, dose response, biochemical (AID 743260).
Assay [13] in a line: ADAM10 protease inhibitors, dose response, selectivity assay for ADAM17 exosite inhibitor project, biochemical, FRET peptide substrate, recombinant human ADAM10 (AID 743259).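 Note: ADAM10 enzyme cleaving a FRET peptide substrate.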
The nature of assay [14]: microbe, parasite or virus in culture. Type of assay: functional. The settings on record: Mycobacterium tuberculosis.
Another assay can be described thus: cells. It counts as functional.
The target of assay [15] is T2, Histone-lysine N-methyltransferase NSD2 (Homo sapiens, UniProt O96028).
T2 sequence (O96028 whole entry): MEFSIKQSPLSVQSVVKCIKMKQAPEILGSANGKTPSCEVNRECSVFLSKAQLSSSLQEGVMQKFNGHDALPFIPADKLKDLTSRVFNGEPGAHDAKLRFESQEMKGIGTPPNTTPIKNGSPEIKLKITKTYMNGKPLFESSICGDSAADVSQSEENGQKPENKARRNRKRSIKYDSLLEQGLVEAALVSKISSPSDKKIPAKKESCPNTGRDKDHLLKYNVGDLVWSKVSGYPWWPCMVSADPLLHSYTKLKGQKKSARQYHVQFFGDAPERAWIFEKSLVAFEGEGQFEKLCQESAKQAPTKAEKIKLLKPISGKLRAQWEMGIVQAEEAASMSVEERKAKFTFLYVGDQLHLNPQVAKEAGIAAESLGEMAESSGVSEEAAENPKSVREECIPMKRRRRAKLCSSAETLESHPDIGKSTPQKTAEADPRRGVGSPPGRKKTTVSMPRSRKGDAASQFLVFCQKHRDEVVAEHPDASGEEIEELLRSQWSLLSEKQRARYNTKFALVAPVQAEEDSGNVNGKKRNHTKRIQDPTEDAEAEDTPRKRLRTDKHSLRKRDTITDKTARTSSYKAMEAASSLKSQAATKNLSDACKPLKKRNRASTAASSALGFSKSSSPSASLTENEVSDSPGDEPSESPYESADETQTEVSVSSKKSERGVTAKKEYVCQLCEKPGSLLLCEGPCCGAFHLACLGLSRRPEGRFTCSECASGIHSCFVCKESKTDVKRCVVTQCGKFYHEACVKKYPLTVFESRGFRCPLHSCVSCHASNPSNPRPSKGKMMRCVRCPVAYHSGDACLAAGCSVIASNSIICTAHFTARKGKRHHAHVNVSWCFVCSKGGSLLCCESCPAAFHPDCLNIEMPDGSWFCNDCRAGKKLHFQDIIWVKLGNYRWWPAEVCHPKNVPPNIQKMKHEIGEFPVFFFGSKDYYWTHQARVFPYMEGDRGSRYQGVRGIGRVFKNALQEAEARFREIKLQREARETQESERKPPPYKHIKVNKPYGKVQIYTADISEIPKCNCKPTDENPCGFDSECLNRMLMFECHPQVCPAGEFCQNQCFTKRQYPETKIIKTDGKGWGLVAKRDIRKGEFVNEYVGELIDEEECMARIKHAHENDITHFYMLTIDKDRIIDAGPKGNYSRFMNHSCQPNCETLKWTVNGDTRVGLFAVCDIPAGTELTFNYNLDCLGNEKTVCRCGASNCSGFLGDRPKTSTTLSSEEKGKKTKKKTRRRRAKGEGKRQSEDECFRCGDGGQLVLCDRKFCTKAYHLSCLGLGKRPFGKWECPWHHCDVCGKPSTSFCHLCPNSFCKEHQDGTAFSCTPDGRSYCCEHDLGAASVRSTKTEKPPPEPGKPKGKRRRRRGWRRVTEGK
It counts as biochemical.

Assay [16] in a line: P. falciparum 3D7-ScDHODH growth inhibitors, dose response, SYBR Green, dry powder samples (AID 1159570).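 Note: parasite growth measured after 72 hours of compound exposure.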 It counts as functional, cell-based.
Assay [17] can be described thus: HepG2 cell cytotoxicity, dose response, cytotoxicity control, plate reader, dry powder samples (AID 1159569).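 Note: inhibitor potency with signal falling toward the positive control level.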 It counts as functional, cell-based.
Assay [18] is described as follows: P. falciparum Dd2 growth inhibitors, dose response, SYBR Green, cherry-picked samples (AID 1159567). It counts as functional, cell-based.
A short description of assay [19]: P. falciparum Dd2 growth inhibitors, dose response, SYBR Green, dry powder samples (AID 1159566).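 Note: potency for growth inhibition with lower SYBR green DNA signal.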 It counts as functional, cell-based.
Assay [20] in a line: HepG2 cell cytotoxicity, dose response, cytotoxicity control, cherry-picked samples (AID 1159577). Type of assay: functional, cell-based.
Assay [21] is described as follows: P. falciparum ATP4 D1247Y mutant growth inhibitors, dose response, NITD609-resistant line, SYBR Green, dry powder (AID 1159571).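 Note: parasites synchronized at ring stage by sorbitol before testing.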 It counts as functional, cell-based.

Protein Tat, sequence (P04608 whole entry): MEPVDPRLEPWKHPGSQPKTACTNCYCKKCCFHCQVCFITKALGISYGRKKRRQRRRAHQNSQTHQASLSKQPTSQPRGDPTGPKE
Disintegrin and metalloproteinase domain-containing protein 17, sequence (P78536 whole entry, the tested form may be a part): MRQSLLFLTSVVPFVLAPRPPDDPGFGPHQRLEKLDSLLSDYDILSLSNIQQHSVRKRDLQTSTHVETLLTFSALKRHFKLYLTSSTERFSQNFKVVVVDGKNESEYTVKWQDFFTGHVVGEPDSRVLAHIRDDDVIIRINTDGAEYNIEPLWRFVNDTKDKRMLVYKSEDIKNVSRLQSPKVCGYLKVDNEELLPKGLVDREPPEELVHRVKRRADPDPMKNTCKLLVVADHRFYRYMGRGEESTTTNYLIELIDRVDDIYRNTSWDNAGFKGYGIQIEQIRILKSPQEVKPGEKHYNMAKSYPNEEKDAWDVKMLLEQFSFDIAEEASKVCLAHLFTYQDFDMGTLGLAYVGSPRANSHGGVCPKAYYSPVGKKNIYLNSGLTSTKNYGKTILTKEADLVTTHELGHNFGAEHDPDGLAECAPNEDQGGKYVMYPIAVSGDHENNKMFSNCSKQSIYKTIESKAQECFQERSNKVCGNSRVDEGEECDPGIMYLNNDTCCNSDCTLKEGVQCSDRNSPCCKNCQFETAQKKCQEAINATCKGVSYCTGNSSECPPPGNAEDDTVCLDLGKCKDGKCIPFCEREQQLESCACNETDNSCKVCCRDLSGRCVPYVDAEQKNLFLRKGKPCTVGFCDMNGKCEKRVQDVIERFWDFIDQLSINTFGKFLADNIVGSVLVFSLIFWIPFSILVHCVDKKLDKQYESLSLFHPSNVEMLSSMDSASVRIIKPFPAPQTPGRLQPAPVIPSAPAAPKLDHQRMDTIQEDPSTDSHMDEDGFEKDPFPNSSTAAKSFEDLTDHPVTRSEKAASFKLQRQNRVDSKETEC

`CCCOC(=O)Nc1sc2c(c1C(=O)OCC)CCC2`: the concentration for half-maximal inhibition (IC50) on Protein Tat was > 100 µM (active).

Regarding `CCc1ccc2oc(-c3cccc(N)c3)nc2c1`, the EC50 in assay [1] is 0.37 µM (active); in the assay with HT-1080, > 50 µM (not active); in [3], > 67.5 µM (inactive); in assay [4] it was > 67.6 µM (inactive). Also, the IC50 in assay [2] was > 67.5 µM (inactive).

Consider `CN1/C(=C\C(=O)Nc2ccc(F)cc2)C(C)(C)c2ccccc21`, for which the IC50 in assay [5] was > 122 µM (inactive).

As to `Cc1occc1C(=O)Nc1ccc2c(c1)OCCO2`, the AC50 in assay [6] was > 52 µM (inactive).

Turning to `CC1(C)Cc2c(sc(NC(=O)COc3cccc4ccccc34)c2C#N)C(C)(C)N1`, the half-maximal inhibitory concentration (IC50) in [7] was 8.33 µM (active); in [8] it was 8.84 µM (active); in assay [9] it was > 80 µM (inactive). Further, the EC50 is > 10.1 µM (inactive) in [10] and > 91.2 µM (inactive) in [11].

With `Cc1ccc(NC(=O)NNC(=O)Cn2nc(-c3ccccc3)c(-c3ccccc3)c(C#N)c2=O)cc1`, the values for the IC50 (on Fatty acid synthase; in [12]; in [13]) were 4.64 µM (active), > 69.5 µM (inactive) and > 69.5 µM (inactive), respectively.

Turning to `Oc1cc(NCc2cccnc2)ccc1-c1nc2ccccc2o1`, the CC50 in assay [14] was > 40 µM (active). Besides, the IC50 in the assay “cells” is 14.1 µM (active). Besides, in assay [6], the AC50 is 26 µM (active).

Consider `Cc1ccc(C(=O)NC(=S)c2c(C)cc3ccccn23)cc1`, for which the AC50 in [15] was 11 µM (active). Also, the IC50 in assay [2] was > 67.5 µM (inactive). Also, the EC50 in assay [3] was > 67.5 µM (inactive).

On to `COc1ccccc1C#Cc1ccc([C@@H]2[C@@H](C#N)N(C(=O)C3CCCC3)[C@H]2CO)cc1`, for which the AC50 was 1.92 µM (active) in [16]; 25.2 µM (active) in assay [17]; 2.9 µM (active) in assay [18]; 1.22 µM (active) in assay [19]; > 39 µM (inactive) in [20]; 1.39 µM (active) in assay [21].

The IC50 is the concentration needed to halve the response being measured. As a reminder, the AC50 is the midpoint of the concentration-response curve, whichever way the signal moves.

Values taken from ChEMBL document CHEMBL1201862, “PubChem BioAssay data set” (2004).
